Assay results as given in patent US20220062240A1, “METHODS OF TREATING CANCER USING A CLK INHIBITOR” (BioSplice Therapeutics, Inc., priority 2018, published 2022).
Like-named read-outs stand apart in the source and are kept apart here.

How the values were obtained:
[1] = molecular target: T1, CLK2 (Homo sapiens, UniProt P49760); assay: CLK2 kinase activity assay (Z-lyte, Ser/Thr 6 peptide); assay type: biochemical; conditions: recombinant CLK2 kinase, ATP 60 μM; read-out: EC50
T1 construct: purchased Thermo Fisher (Life Technologies), Z'-LYTE Kinase Assay Kits
Protocol: All reactions were performed in duplicate.

[2] = tested on: BT-549; assay: CellTiter-Glo Viability Assay, breast cancer; assay type: cell-based; conditions: Homo sapiens, 96 h; BT-549, breast cancer, four days; read-out: EC50
[3] = tested on: CAMA1; assay: CellTiter-Glo Viability Assay, breast cancer; assay type: cell-based; conditions: Homo sapiens, CAMA-1, 96 h; CAMA1, breast cancer, four days; read-out: EC50
[4] = tested on: DU4475; assay: CellTiter-Glo Viability Assay, breast cancer; assay type: cell-based; conditions: Homo sapiens, DU-4475, 96 h; DU4475, breast cancer, four days; read-out: EC50
[5] = tested on: HCC1599; assay: CellTiter-Glo Viability Assay, breast cancer; assay type: cell-based; conditions: Homo sapiens, 96 h; HCC1599, breast cancer, four days; read-out: EC50
[6] = tested on: MCF7; assay: CellTiter-Glo Viability Assay, breast cancer; assay type: cell-based; conditions: Homo sapiens, 96 h; MCF7, breast cancer, four days; read-out: EC50
[7] = tested on: MDA-MB-231-Luc; assay: CellTiter-Glo Viability Assay, breast cancer; assay type: cell-based; conditions: Homo sapiens, 96 h; MDA-MB-231-Luc, breast cancer, four days; read-out: EC50
[8] = tested on: T47D; assay: CellTiter-Glo Viability Assay, breast cancer; assay type: cell-based; conditions: Homo sapiens, 96 h, breast cancer, four days, read-out: EC50
[9] = tested on: ZR-75-1; assay: CellTiter-Glo Viability Assay, breast cancer; assay type: cell-based; conditions: Homo sapiens, 96 h; ZR-75-1, breast cancer, four days; read-out: EC50
[10] = tested on: all 50 cell lines; assay: CellTiter-Glo Viability Assay, average across all cell lines; assay type: cell-based; conditions: Homo sapiens; across all 50 cell lines; read-out: average EC50 for inhibition of cancer cell proliferation
In short: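 Cancer cell lines of several tumour types plated at 300-3,000 cells/well and exposed to compound in duplicate for four days at 37° C, 5% CO2, with DMSO-treated controls. Viability read by CellTiter-Glo luminescence (ATP content); EC50 derived from dose-response curves.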

[11] = tested on: colorectal cancer (6 cell lines); assay: CellTiter-Glo Viability Assay, colorectal cancer; assay type: cell-based; conditions: Homo sapiens, inhibition of cancer cell proliferation
[12] = tested on: haematopoietic & lymphoid tumors (13 cell lines); assay: CellTiter-Glo Viability Assay, haematopoietic & lymphoid tumors; assay type: cell-based; conditions: Homo sapiens, inhibition of cancer cell proliferation
[13] = tested on: liver cancer (3 cell lines); assay: CellTiter-Glo Viability Assay, liver cancer; assay type: cell-based; conditions: Homo sapiens, inhibition of cancer cell proliferation
[14] = tested on: lung cancer (4 cell lines); assay: CellTiter-Glo Viability Assay, lung cancer; assay type: cell-based; conditions: Homo sapiens, inhibition of cancer cell proliferation
[15] = tested on: ovarian cancer (4 cell lines); assay: CellTiter-Glo Viability Assay, ovarian cancer; assay type: cell-based; conditions: Homo sapiens, inhibition of cancer cell proliferation
[16] = tested on: pancreatic cancer (8 cell lines); assay: CellTiter-Glo Viability Assay, pancreatic cancer; assay type: cell-based; conditions: Homo sapiens, inhibition of cancer cell proliferation
[17] = tested on: prostate cancer (5 cell lines); assay: CellTiter-Glo Viability Assay, prostate cancer; assay type: cell-based; conditions: Homo sapiens
[18] = molecular target: CLK3 (Homo sapiens, UniProt P49761); assay: CLK3 kinase activity assay (Z-lyte, Ser/Thr 18 peptide)
[19] = HCT-116, HCT116 cell line, read-out: Colorectal cancer, EC50 (μM) HCT116
[20] = HT-29, HT29 cell line, read-out: Colorectal cancer, EC50 (μM) HT29
[21] = SW-620, SW620 cell line, read-out: Colorectal cancer, EC50 (μM) SW620
[22] = DLD-1 cell line, read-out: Colorectal cancer, EC50 (μM) DLD-1
[23] = SW48 cell line, read-out: Colorectal cancer, EC50 (μM) SW48
[24] = SW480 cell line, read-out: Colorectal cancer, EC50 (μM) SW480
[25] = DND41, DND-41 cell line, read-out: Haematopoietic & Lymphoid tumors, EC50 (μM) DND-41
[26] = MV4-11, MV-4-11 cell line, read-out: Haematopoietic & Lymphoid tumors, EC50 (μM) MV-4-11
[27] = Rec1, REC-1 cell line, read-out: Haematopoietic & Lymphoid tumors, EC50 (μM) REC-1
[28] = SU-DHL-4, SUDHL4 cell line, read-out: Haematopoietic & Lymphoid tumors, EC50 (μM) SUDHL4
[29] = HL-60 cell line, read-out: Haematopoietic & Lymphoid tumors, EC50 (μM) HL-60
[30] = JM1 cell line, read-out: Haematopoietic & Lymphoid tumors, EC50 (μM) JM1
[31] = JURKAT, Clone E6-1 cell line, read-out: Haematopoietic & Lymphoid tumors, EC50 (μM) JURKAT, Clone E6-1
[32] = JeKo-1 cell line, read-out: Haematopoietic & Lymphoid tumors, EC50 (μM) JeKo-1
[33] = KASUMI-1 cell line, read-out: Haematopoietic & Lymphoid tumors, EC50 (μM) KASUMI-1
[34] = Loucy cell line, read-out: Haematopoietic & Lymphoid tumors, EC50 (μM) Loucy
[35] = MOLT-4 cell line, read-out: Haematopoietic & Lymphoid tumors, EC50 (μM) MOLT-4
[36] = TF-1 cell line, read-out: Haematopoietic & Lymphoid tumors, EC50 (μM) TF-1
[37] = TOLEDO cell line, read-out: Haematopoietic & Lymphoid tumors, EC50 (μM) TOLEDO
[38] = SNU-398, SNU398 cell line, read-out: Liver cancer, EC50 SNU398
[39] = HEPG2 cell line, read-out: Liver cancer, EC50 HEPG2
[40] = PLC/PRF/5 cell line, read-out: Liver cancer, EC50 PLC/PRF/5
[41] = A-427, A427 cell line, read-out: Lung cancer, EC50 (μM) A427
[42] = HCC78, HCC-78 cell line, read-out: Lung cancer, EC50 (μM) HCC-78
[43] = NCI-H460 cell line, read-out: Lung cancer, EC50 (μM) NCI-H460
[44] = NCI-H522 cell line, read-out: Lung cancer, EC50 (μM) NCI-H522
[45] = PA-1, PA1 cell line, read-out: Ovarian cancer, EC50 (μM) PA1
[46] = TOV112D, TOV-112D cell line, read-out: Ovarian cancer, EC50 (μM) TOV-112D
[47] = OV-90 cell line, read-out: Ovarian cancer, EC50 (μM) OV-90
[48] = OVCAR-3 cell line, read-out: Ovarian cancer, EC50 (μM) OVCAR-3
[49] = BXPC-3, BxPC3 cell line, read-out: Pancreatic cancer, EC50 BxPC3
[50] = CAPAN-1, Capan1 cell line, read-out: Pancreatic cancer, EC50 Capan1
[51] = Capan-2, Capan2 cell line, read-out: Pancreatic cancer, EC50 Capan2
[52] = MIA PaCa-2 cell line, read-out: Pancreatic cancer, EC50 MIA PaCa-2
[53] = PANC 05.04 cell line, read-out: Pancreatic cancer, EC50 PANC 05.04
[54] = PANC-1 cell line, read-out: Pancreatic cancer, EC50 PANC-1
[55] = UPAFII cell line, read-out: Pancreatic cancer, EC50 UPAFII
[56] = DU-145, read-out: Prostate cancer EC50 Du-145
[57] = PC-3, PC3 cell line, inhibition of cancer cell proliferation, read-out: Prostate cancer EC50 PC3
[58] = 22Rv1 cell line, inhibition of cancer cell proliferation, read-out: Prostate cancer EC50 22Rv1
[59] = LNCap clone FGC cell line, inhibition of cancer cell proliferation, read-out: Prostate cancer EC50 LNCap clone FGC
[60] = VCaP (Sigma) cell line, inhibition of cancer cell proliferation, read-out: Prostate cancer EC50 VCaP (Sigma)

CLK3, sequence (P49761 whole entry): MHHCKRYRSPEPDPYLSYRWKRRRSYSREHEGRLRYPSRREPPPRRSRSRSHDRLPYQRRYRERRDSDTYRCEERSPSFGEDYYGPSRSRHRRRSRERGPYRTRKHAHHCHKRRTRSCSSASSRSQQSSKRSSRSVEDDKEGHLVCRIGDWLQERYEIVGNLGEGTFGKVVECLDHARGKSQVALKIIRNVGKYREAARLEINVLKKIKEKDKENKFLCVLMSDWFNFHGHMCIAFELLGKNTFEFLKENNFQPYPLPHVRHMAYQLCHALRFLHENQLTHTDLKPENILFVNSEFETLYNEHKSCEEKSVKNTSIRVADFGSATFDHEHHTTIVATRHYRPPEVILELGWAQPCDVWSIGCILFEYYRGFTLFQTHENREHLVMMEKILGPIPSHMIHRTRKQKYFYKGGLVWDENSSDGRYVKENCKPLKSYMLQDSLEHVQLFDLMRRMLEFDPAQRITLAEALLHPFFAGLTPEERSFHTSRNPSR
T1 sequence (P49760 whole entry): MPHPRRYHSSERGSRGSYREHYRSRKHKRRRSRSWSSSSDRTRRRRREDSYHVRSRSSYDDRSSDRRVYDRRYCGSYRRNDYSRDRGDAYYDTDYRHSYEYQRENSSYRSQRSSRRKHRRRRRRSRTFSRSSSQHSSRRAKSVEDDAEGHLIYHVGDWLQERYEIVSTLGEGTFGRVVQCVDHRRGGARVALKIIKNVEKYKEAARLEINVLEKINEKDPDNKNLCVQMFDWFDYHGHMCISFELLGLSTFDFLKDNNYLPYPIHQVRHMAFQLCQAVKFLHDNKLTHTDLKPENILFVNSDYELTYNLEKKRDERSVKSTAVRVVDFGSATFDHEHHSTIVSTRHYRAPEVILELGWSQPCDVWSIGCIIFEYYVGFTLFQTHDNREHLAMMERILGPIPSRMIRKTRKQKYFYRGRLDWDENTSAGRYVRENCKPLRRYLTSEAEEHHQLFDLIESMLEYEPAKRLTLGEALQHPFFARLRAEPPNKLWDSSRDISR

SMILES: CN1CCC(Oc2ccc(C(=O)Nc3cc4cc(-c5cnn(C)c5)ccc4cn3)cc2)CC1 [Compound 68]
- EC50 [1]: 0.6 nM
- EC50 [2]: 421 nM
- EC50 [3]: 901 nM
- EC50 [4]: 487 nM
- EC50 [5]: 224 nM
- EC50 [6]: 1820 nM
- EC50 [7]: 1110 nM
- EC50 [8]: 1180 nM
- EC50 [9]: 1370 nM
- EC50 [10]: 632 nM
- EC50 [11, 19]: 0.389 µM
- EC50 [11, 20]: 0.774 µM
- EC50 [11, 21]: 0.206 µM
- EC50 [11, 22]: 0.35 µM
- EC50 [11, 23]: 0.19 µM
- EC50 [11, 24]: 0.546 µM
- EC50 [12, 25]: 0.571 µM
- EC50 [12, 26]: 0.07 µM
- EC50 [12, 27]: 0.162 µM
- EC50 [12, 28]: 0.523 µM
- EC50 [12, 29]: 0.958 µM
- EC50 [12, 30]: 0.165 µM
- EC50 [12, 31]: 0.561 µM
- EC50 [12, 32]: 0.176 µM
- EC50 [12, 33]: 0.257 µM
- EC50 [12, 34]: 0.317 µM
- EC50 [12, 35]: 0.546 µM
- EC50 [12, 36]: 0.649 µM
- EC50 [12, 37]: 0.183 µM
- EC50 [13, 38]: 134 nM
- EC50 [13, 39]: 597 nM
- EC50 [13, 40]: 1270 nM
- EC50 [14, 41]: 0.506 µM
- EC50 [14, 42]: 1.14 µM
- EC50 [14, 43]: 0.709 µM
- EC50 [14, 44]: 0.277 µM
- EC50 [15, 45]: 0.537 µM
- EC50 [15, 46]: 0.327 µM
- EC50 [15, 47]: 1.48 µM
- EC50 [15, 48]: 0.232 µM
- EC50 [16, 49]: 443 nM
- EC50 [16, 50]: 811 nM
- EC50 [16, 51]: 1650 nM
- EC50 [16, 52]: 279 nM
- EC50 [16, 53]: 1040 nM
- EC50 [16, 54]: 903 nM
- EC50 [16, 55]: 435 nM
- EC50 [17, 56]: 652 nM
- EC50 [17, 57]: 602 nM
- EC50 [17, 58]: 449 nM
- EC50 [17, 59]: 651 nM
- EC50 [17, 60]: 1380 nM
- EC50 [18]: 13.6 nM

SMILES: CN(C)C1CN(c2cc(C(=O)Nc3cc4cc(-c5cnn(C)c5)ccc4cn3)ccn2)C1 [Compound 70]
- EC50 [1]: 1.6 nM
- EC50 [2]: 496 nM
- EC50 [3]: 788 nM
- EC50 [4]: 624 nM
- EC50 [5]: 510 nM
- EC50 [6]: 2150 nM
- EC50 [7]: 891 nM
- EC50 [8]: 1350 nM
- EC50 [9]: 1120 nM
- EC50 [10]: 750 nM
- EC50 [11, 19]: 0.465 µM
- EC50 [11, 20]: 1.09 µM
- EC50 [11, 21]: 0.352 µM
- EC50 [11, 22]: 0.481 µM
- EC50 [11, 23]: 0.285 µM
- EC50 [11, 24]: 0.739 µM
- EC50 [12, 25]: 0.774 µM
- EC50 [12, 26]: 0.193 µM
- EC50 [12, 27]: 0.189 µM
- EC50 [12, 28]: 0.899 µM
- EC50 [12, 29]: 1.24 µM
- EC50 [12, 30]: 0.273 µM
- EC50 [12, 31]: 0.863 µM
- EC50 [12, 32]: 0.347 µM
- EC50 [12, 33]: 0.555 µM
- EC50 [12, 34]: 0.617 µM
- EC50 [12, 35]: 0.643 µM
- EC50 [12, 36]: 0.785 µM
- EC50 [12, 37]: 0.25 µM
- EC50 [13, 38]: 205 nM
- EC50 [13, 39]: 750 nM
- EC50 [13, 40]: 1470 nM
- EC50 [14, 41]: 0.605 µM
- EC50 [14, 42]: 1.12 µM
- EC50 [14, 43]: 1.13 µM
- EC50 [14, 44]: 0.389 µM
- EC50 [15, 45]: 0.585 µM
- EC50 [15, 46]: 0.593 µM
- EC50 [15, 47]: 1.45 µM
- EC50 [15, 48]: 0.37 µM
- EC50 [16, 49]: 940 nM
- EC50 [16, 50]: 702 nM
- EC50 [16, 51]: 1140 nM
- EC50 [16, 52]: 461 nM
- EC50 [16, 53]: 713 nM
- EC50 [16, 54]: 1220 nM
- EC50 [16, 55]: 385 nM
- EC50 [17, 56]: 806 nM
- EC50 [17, 57]: 701 nM
- EC50 [17, 58]: 612 nM
- EC50 [17, 59]: 1080 nM
- EC50 [17, 60]: 1060 nM
- EC50 [18]: 24.5 nM
